target: T1, hFXR (Homo sapiens, UniProt Q96RI1); test: In Vitro FXR Assay (TK): TK-ECRE-luc reporter in transfected CV-1 cells; assay type: cell-based; conditions: 18 hrs, luminescence, maximum efficacy of <25% of the Fexarmine control classified as '+'
T1 construct: expressed in transfected cells; host or cells: CV-1 cells
T1 sequence (Q96RI1 1-486): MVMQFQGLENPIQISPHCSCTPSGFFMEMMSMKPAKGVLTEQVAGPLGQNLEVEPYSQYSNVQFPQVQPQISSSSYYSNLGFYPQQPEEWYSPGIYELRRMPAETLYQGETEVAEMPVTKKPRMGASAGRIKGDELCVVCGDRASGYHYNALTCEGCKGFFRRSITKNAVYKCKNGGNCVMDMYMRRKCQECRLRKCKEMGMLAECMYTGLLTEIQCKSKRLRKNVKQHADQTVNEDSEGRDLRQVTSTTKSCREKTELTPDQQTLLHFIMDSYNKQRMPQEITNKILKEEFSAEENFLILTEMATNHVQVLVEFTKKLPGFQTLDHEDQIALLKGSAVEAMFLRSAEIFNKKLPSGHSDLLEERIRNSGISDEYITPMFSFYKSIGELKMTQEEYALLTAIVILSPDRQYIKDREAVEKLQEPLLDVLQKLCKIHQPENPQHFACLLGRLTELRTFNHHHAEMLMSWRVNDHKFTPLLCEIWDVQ
T1 sequence (P19793 1-462 partner): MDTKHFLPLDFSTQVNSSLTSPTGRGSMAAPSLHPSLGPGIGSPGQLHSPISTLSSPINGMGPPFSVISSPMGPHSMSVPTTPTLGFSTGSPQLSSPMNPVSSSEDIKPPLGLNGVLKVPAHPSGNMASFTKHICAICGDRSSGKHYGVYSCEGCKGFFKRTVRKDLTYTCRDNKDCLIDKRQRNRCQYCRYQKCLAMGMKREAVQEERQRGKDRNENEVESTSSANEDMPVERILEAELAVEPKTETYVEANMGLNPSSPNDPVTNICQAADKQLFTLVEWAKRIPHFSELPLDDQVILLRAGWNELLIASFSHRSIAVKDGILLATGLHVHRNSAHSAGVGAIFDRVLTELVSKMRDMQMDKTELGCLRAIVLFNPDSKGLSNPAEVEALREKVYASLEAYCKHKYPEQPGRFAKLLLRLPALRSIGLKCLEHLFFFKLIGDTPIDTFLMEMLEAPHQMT
Summary of the method: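 Reporter transactivation by hFXR was measured in CV-1 cells carrying hRXR and a TK-ECRE-luc construct, with compound treatment for 18 h before lysis and luminescence detection.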

Row | EC50 [nM] | Structure (SMILES)
1 | ≤ 250 | COc1ccc([C@H]2CC[C@H](CN(c3cc(-c4coc(C5CC5)n4)ccn3)C(=O)[C@H]3CC[C@H](OC(=O)N4CC(C5COC5)C4)CC3)CC2)nc1C [Compound 6.84, trans-4-((4-(2-Cyclopropyloxazol-4-yl)pyridin-2-yl)((trans-4-(5-methoxy-6-methylpyridin-2-yl)cyclohexyl)methyl)carbamoyl)cyclohexyl 3-(oxetan-3-yl) azetidine-1-carboxylate]
2 | ≤ 250 | COc1ccc([C@H]2CC[C@H](CN(c3cccc(-c4cnn(C(C)C)c4)c3)C(=O)[C@H]3CC[C@H](OC(=O)N4CCN(C)CC4)CC3)CC2)nc1C [Compound 6.44, trans-4-((3-(1-Isopropyl-1H-pyrazol-4-yl)phenyl)((trans-4-(5-methoxy-6-methylpyridin-2-yl)cyclohexyl)methyl)carbamoyl)cyclohexyl 4-methylpiperazine-1-carboxylate]
3 | ≤ 250 | COc1ccc([C@H]2CC[C@H](CN(c3cccc(-c4coc(C(C)C)n4)c3)C(=O)[C@H]3CC[C@H](CC(=O)O)CC3)CC2)cc1C#N [Compound 21.10, 2-(trans-4-(((trans-4-(3-Cyano-4-methoxyphenyl)cyclohexyl)methyl)(3-(2-isopropyloxazol-4-yl)phenyl)carbamoyl)cyclohexyl)acetic acid]
4 | ≤ 250 | COc1ccc([C@H]2CC[C@H](CN(c3cc(-c4cnn(C(C)C)c4)ccn3)C(=O)[C@H]3CC[C@H](OC(=O)NC4CC4)CC3)CC2)nc1C#N [Compound 6.33, trans-4-(((trans-4-(6-Cyano-5-methoxypyridin-2-yl)cyclohexyl)methyl) (4-(1-isopropyl-1H-pyrazol-4-yl)pyridin-2-yl)carbamoyl)cyclohexyl cyclopropylcarbamate]
5 | ≤ 250 | COc1ccc([C@H]2CC[C@H](CN(c3cccc(-c4coc(C5CC5)n4)c3)C(=O)[C@H]3CC[C@H](CC(=O)O)CC3)CC2)cc1C [Compound 21.02, 2-(trans-4-((3-(2-Cyclopropyloxazol-4-yl)phenyl)((trans-4-(4-methoxy-3-methylphenyl)cyclohexyl)methyl)carbamoyl)cyclohexyl)acetic acid]
6 | ≤ 250 | CNC(=O)O[C@H]1CC[C@H](C(=O)N(C[C@H]2CC[C@H](c3ccc(OC)c(C#N)n3)CC2)c2cccc(-c3cnn(C4CC4)c3)c2)CC1 [Compound 5.23, trans-4-(((trans-4-(6-Cyano-5-methoxypyridin-2-yl)cyclohexyl)methyl)(3-(1-cyclopropyl-1H-pyrazol-4-yl)phenyl)carbamoyl)cyclohexyl methylcarbamate]
7 | ≤ 250 | CNC(=O)O[C@H]1CC[C@H](C(=O)N(C[C@H]2CC[C@H](c3ccc(OC)c(C)c3)CC2)c2cccc(-c3cnc(OC)s3)c2)CC1 [Compound 2.01, trans-4-(((trans-4-(4-Methoxy-3-methylphenyl)cyclohexyl)methyl)(3-(2-methoxythiazol-5-yl)phenyl)carbamoyl)cyclohexyl methylcarbamate]
8 | ≤ 250 | COCC(=O)N[C@H]1CC[C@H](C(=O)N(C[C@H]2CC[C@H](c3ccc(OC)c(C)c3)CC2)c2cccc(-c3cnc(C4CC4)s3)c2)CC1 [Compound 25.12, trans-N-(3-(2-Cyclopropylthiazol-5-yl)phenyl)-N-((trans-4-(4-methoxy-3-methylphenyl)cyclohexyl)methyl)-4-(2-methoxyacetamido) cyclohexanecarboxamide]
9 | ≥ 1000 | COc1ccc([C@H]2CC[C@H](CN(c3cccc(-c4cnc(C5CC5)s4)c3)C(=O)[C@H]3CC[C@H](NC(=O)C4CNC4)CC3)CC2)cc1C [Compound 27.06, N-(trans-4-((3-(2-Cyclopropylthiazol-5-yl)phenyl)((trans-4-(4-methoxy-3-methylphenyl)cyclohexyl)methyl)carbamoyl)cyclohexyl)azetidine-3-carboxamide]
10 | ≤ 250 | CCC(C)(O)CNC(=O)O[C@H]1CC[C@H](C(=O)N(C[C@H]2CC[C@H](c3ccc(OC)c(C)n3)CC2)c2cc(-c3coc(C4CC4)n3)ccn2)CC1 (stereo partly drawn) [Compound 6.69, trans-4-((4-(2-Cyclopropyloxazol-4-yl)pyridin-2-yl)((trans-4-(5-methoxy-6-methylpyridin-2-yl)cyclohexyl)methyl)carbamoyl)cyclohexyl (2-hydroxy-2-methylbutyl)carbamate]
11 | ≤ 250 | CNC(=O)O[C@H]1CC[C@H](C(=O)N(CC23CCC(c4ccc(OC)c(C)c4)(CC2)CC3)c2cccc(-c3coc(C4CC4)n3)c2)CC1 [Compound 2.07, 4-((3-(2-Cyclopropyloxazol-4-yl)phenyl)((4-(4-methoxy-3-methylphenyl)bicyclo[2.2.2]octan-1-yl)methyl)carbamoyl)cyclohexyl trans-methylcarbamate]
12 | ≤ 250 | COc1ccc([C@H]2CC[C@H](CN(c3cccc(-c4cnn(C(C)C)c4)c3)C(=O)[C@H]3CC[C@H](OC(=O)N4CCOCC4)CC3)CC2)nc1C [Compound 6.43, trans-4-((3-(1-Isopropyl-1H-pyrazol-4-yl)phenyl)((trans-4-(5-methoxy-6-methylpyridin-2-yl)cyclohexyl)methyl)carbamoyl)cyclohexylmorpholine-4-carboxylate]
13 | ≤ 250 | COc1ccc([C@H]2CC[C@H](CN(c3cccc(-c4cnn(C5CC5)c4)c3)C(=O)[C@H]3CC[C@H](OC(=O)N4CC(N(C)C)C4)CC3)CC2)cc1C [Compound 7.27, trans-4-((3-(1-Cyclopropyl-1H-pyrazol-4-yl)phenyl)((trans-4-(4-methoxy-3-methylphenyl)cyclohexyl)methyl)carbamoyl)cyclohexyl 3-(dimethylamino)azetidine-1-carboxylate]
14 | ≤ 250 | CCCCOC(=O)[C@H]1CC[C@H](C(=O)N(C[C@H]2CC[C@H](c3ccc(OC)c(C)c3)CC2)c2cccc(-c3cnn(C4CC4)c3)c2)CC1 [Compound 22.02, trans-Butyl 4-((3-(1-cyclopropyl-1H-pyrazol-4-yl)phenyl)((trans-4-(4-methoxy-3-methylphenyl)cyclohexyl)methyl)carbamoyl) cyclohexanecarboxylate]
15 | ≤ 250 | CCC1CN(C(=O)O[C@H]2CC[C@H](C(=O)N(C[C@H]3CC[C@H](c4ccc(OC)c(C)n4)CC3)c3cc(-c4coc(C(C)C)n4)ccn3)CC2)C1 [Compound 7.100, trans-4-((4-(2-Isopropyloxazol-4-yl)pyridine-2-yl)((trans-4-(5-methoxy-6-methylpyridin-2-yl)cyclohexyl)methyl)carbamoyl)cyclohexyl 3-ethylazetidine-1-carboxylate]
16 | ≤ 250 | COc1ccc([C@H]2CC[C@H](CN(c3cccc(-c4cnn(C5CC5)c4)c3)C(=O)[C@H]3CC[C@H](CC(=O)O)CC3)CC2)nc1C [Compound 17.24, 2-(trans-4-((3-(1-Cyclopropyl-1H-pyrazol-4-yl)phenyl)((trans-4-(5-methoxy-6-methylpyridin-2-yl)cyclohexyl)methyl)carbamoyl)cyclohexyl)acetic acid]
17 | ≤ 250 | CNC(=O)N[C@H]1CC[C@H](C(=O)N(C[C@H]2CC[C@H](c3ccc(OC)c(C)c3)CC2)c2cccc(-c3cnc(C4CC4)s3)c2)CC1 [Compound 26.36, trans-N-(3-(2-Cyclopropylthiazol-5-yl)phenyl)-N-((trans-4-(4-methoxy-3-methylphenyl)cyclohexyl)methyl)-4-(3-methylureido)cyclohexanecarboxamide]
18 | 250 to 1000 | COc1ccc([C@H]2CC[C@H](CN(c3cccc(-c4cnc(C5CC5)s4)c3)C(=O)[C@H]3CC[C@H](NC(=O)Cn4ccnc4)CC3)CC2)cc1C [Compound 27.03, trans-4-(2-(1H-Imidazol-1-yl)acetamido)-N-(3-(2-cyclopropylthiazol-5-yl)phenyl)-N-((trans-4-(4-methoxy-3-methylphenyl)cyclohexyl)methyl)cyclohexanecarboxamide]
19 | ≤ 250 | COC(=O)NC[C@H]1CC[C@H](C(=O)N(C[C@H]2CC[C@H](c3ccc(OC)c(C)c3)CC2)c2cccc(-c3cnn(C4CC4)c3)c2)CC1 [Compound 26.14, Methyl ((trans-4-((3-(1-cyclopropyl-1H-pyrazol-4-yl)phenyl)((trans-4-(4-methoxy-3-methylphenyl)cyclohexyl)methyl)carbamoyl)cyclohexyl)methyl)carbamate]
20 | ≤ 250 | COc1ccc([C@H]2CC[C@H](CN(c3cc(-c4coc(C(C)C)n4)ccn3)C(=O)[C@H]3CC[C@H](CC(=O)O)CC3)CC2)cc1C [Compound 21.09, 2-(trans-4-((4-(2-Isopropyloxazol-4-yl)pyridin-2-yl)((trans-4-(4-methoxy-3-methylphenyl)cyclohexyl)methyl)carbamoyl)cyclohexyl)acetic acid]

— US20220089575A1, “FARNESOID X RECEPTOR AGONISTS AND USES THEREOF” (Metacrine, Inc., priority 2017, published 2022)
